Measured values as given in patent US11596716B2, “Compounds and matrices for use in bone growth and repair” (Human BioMolecular Research Institute, priority 2013, dated 2023).
pEC50: −log10 of the molar value. Read-outs that look alike come from different tables or passages of the source.

Assays:
[1] = tested on: C2C12 cells; assay: qPCR detection of osteogenic markers in C2C12 cells; format: cell-based, Mouse; details: 500 nM, 6 days
[2] = tested on: hMSCs; assay: TLR4/TLR3 mRNA expression ratio by qPCR in hMSCs; format: cell-based, human; details: 500 nM, 8 days
Text: TLRs are modulators of hMSC differentiation. TLRs (TLR1-10) mRNA could be detected by qPCR in hMSCs. TLR4 is a biomarker for osteogenesis and TLR3 is a biomarker for adipogenesis. […]

[3] = tested on: hMSCs; assay: Alamar blue cell viability assay in hMSCs; format: cell-based, human; details: 500 nM, 25-day-old hMSCs
Description: (§1) Cell proliferation/viability assay: Cells were seeded at a density of 500 cells/well on 96-well plates. After 24 hr, compound (i.e., 5 nM, 50 nM, 500 nM or 5000 nM) was added to the cells in the presence or absence of calcium phosphate matrix (5 mg/mL). One-half of the media was replaced with fresh media containing compound every 48 hours for 8 days. At the specified time, 1 μg of Resazurin was added to each well of the 96-well plate and the fluorescence signal at 590 nm (excitation at 530 nm) was immediately measured. Readings were designated as time zero values (value0h). Cells were incubated for 1 hr before a second fluorescence measurement at 590 nm was made (value1h). The difference in 1 hr and 0 h (value1h−value0h) readings were used to plot the fold-change in cell proliferation/viability after normalizing to control conditions (i.e., DMSO vehicle treatment). Compounds of Formula II or IV that activate Wnt signaling and compounds of Formula VI that activate TLR signaling pathways were analyzed. This protocol was applied to hMSC and E15 cells as well. Cell proliferation was not robust in keeping with a narrow number of cells highly committed to the bone cell lineage.
The assay for cell proliferation followed the same procedure with hMSCs as described for C2C12 cells (Example 7).

[4] = tested on: hMSCs; assay: Alkaline Phosphatase functional activity assay in hMSCs; format: cell-based, human; parameters: key to Alkaline Phosphatase activity, −matrix, 8 days / Alkaline Phosphatase activity, +matrix, 8 days / Alkaline Phosphatase activity, −matrix, 25 days / Alkaline Phosphatase activity, +matrix, 25 days: fold-change vs DMSO-treated control (control = 1); details: for ALP functional activity, compound and matrix versus compound alone or matrix alone / Alkaline Phosphatase activity, +matrix, 8 days / Alkaline Phosphatase activity, +matrix, 25 days / Alkaline Phosphatase activity, −matrix, 25 days / Alkaline Phosphatase activity, −matrix, 8 days: 500 nM; for ALP functional activity, compound and matrix versus compound alone or matrix alone: 8 and 25 day incubations, matrix 5 mg/mL (FIG. 3); for Alkaline Phosphatase activity, +matrix, 8 days / Alkaline Phosphatase activity, +matrix, 25 days: matrix 5 mg/mL; for Alkaline Phosphatase activity, +matrix, 8 days / Alkaline Phosphatase activity, +matrix, 25 days / Alkaline Phosphatase activity, −matrix, 25 days / Alkaline Phosphatase activity, −matrix, 8 days: mean +/− SD (n = 3); for Alkaline Phosphatase activity, −matrix, 8 days: fold; for pEC50: dose-dependent induction in hMSCs, read-out: EC50 of induction of ALP activity
[5] = tested on: C2C12 cells; assay: Cell proliferation/viability assay (Resazurin / Alamar blue) in C2C12 cells; format: cell-based, Mouse; details: for cell viability (Alamar blue): 500 nM every 48 hrs for 25 days
Description: as §1, with “One-half of the media was replaced with fresh media containing compound every 48 hours for 8 days.” left out

[6] = tested on: C2C12 cells; assay: Alizarin Red S staining (calcium deposition) in C2C12 cells; format: cell-based, Mouse; details: 500 nM, 25 days of treatment
Description: Alizarin Red S Staining: C2C12 cells were cultured as described for the ALP functional activity assay (above, except compound was added every 48 hr for 25 days), but using 48-well plate format. On day 25, medium was removed and the cells were washed with PBS (calcium and magnesium free). Cells were fixed with 70% ethanol at room temperature for 30 mins, rinsed with water 3×. Following removal of water, 200 μl of Alizarin Red S (2%, pH 4.1) was added to each well and incubated for at least 20 mins. The dye was removed and the cells were washed with excess H2O four times with gentle mixing. The cells were covered with water to prevent evaporation and analyzed by plate reader or microscope. This protocol was applied to hMSC and E15 cells.

[7] = tested on: hMSCs; assay: Oil Red O staining (adipogenesis) in hMSCs; format: cell-based, human; details: for effect on adipogenesis, densitometry of cell culture images: 500 nM every 48 hr for 25 days, TCP 5 mg/mL; for adipogenesis (Oil Red O staining) compared to vehicle-treated hMSCs: presence or absence of matrix, 25 days
Description: Oil Red O Staining: Oil Red O (ORO, 1-(2,5-dimethyl-4-(2-5-dimethylphenyl) phenyldiazenyl) azonapthalen-2-ol) was used to stain for the presence of adipocytes. An ORO solution was prepared to afford a 0.03% final concentration in dH2O. hMSCs were cultured as described above for Alizarin Red Staining (Example 7) in 48-well plates. On day 25 of cell incubation, cells were fixed with 4% formaldehyde for 40 mins at room temperature. Cells were stained for 1 hr followed by washes with dH2O (1 mL) until the wash water was clear (without red elutes). Cell culture images were taken under a microscope and quantified by densitometry.

[8] = tested on: C2C12 cells; assay: Alkaline Phosphatase (ALP) functional activity assay in C2C12 cells; format: cell-based, Mouse; details: 500 nM; for ALP activity, combination of compound and matrix compared to compound alone or matrix alone: 6 day incubation, tricalcium phosphate ceramic matrix 5 mg/mL (FIG. 2); for ALP activity fold-changes +/− SD, −matrix / ALP activity fold-changes +/− SD, +matrix: 6 days of culture; for ALP activity fold-changes +/− SD, −matrix: absence of matrix, versus untreated (DMSO) cells; for ALP activity fold-changes +/− SD, +matrix: calcium phosphate ceramic 5 mg/mL
Method in brief: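 ALP functional activity in mouse C2C12 cells: following 6 days of culture with compound (500 nM, 0.1% DMSO), lysates prepared in buffer of 10 mM Tris-HCl pH 8.0, 1 mM MgCl2, 1% Triton X100 were centrifuged, incubated with pNPP (2 mg/mL) for 10 mins at 37° C., stopped with NaOH, and read at 405 nm; Bradford protein normalization and fold-change versus DMSO followed.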

[9] = tested on: C2C12 cells; assay: qPCR of apoptosis biomarkers (Bax and Fos) in C2C12 cells; format: cell-based, Mouse; details: 500 nM or 5 μM every 48 hrs, up to 25 days
[10] = tested on: hMSCs; assay: qPCR of apoptosis biomarkers (Bax and Fos) in hMSCs; format: cell-based, human; details: for gene expression of apoptosis biomarkers (Bax and Fos): 500 nM to 5 μM, up to 25 days; for cytotoxicity as determined by quantification of apoptosis: hMSCs

pEC50 ([4]; Homo sapiens) | Compound | ID3 mRNA expression, presence of matrix [1] | TLR4/TLR3 ratio, compound alone [2] | cell viability (Alamar blue) [3] | ALP functional activity, compound and matrix versus compound alone or matrix alone [4] | Alkaline Phosphatase activity, +matrix, 8 days [4] | Alkaline Phosphatase activity, +matrix, 25 days [4] | Alkaline Phosphatase activity, −matrix, 25 days [4] | Alkaline Phosphatase activity, −matrix, 8 days [4] | cell viability (Alamar blue) [5] | calcium deposition, absence of matrix [6] | effect on adipogenesis, densitometry of cell culture images [7] | adipogenesis (Oil Red O staining) compared to vehicle-treated hMSCs [7] | ALP activity, combination of compound and matrix compared to compound alone or matrix alone [8] | ALP activity fold-changes +/− SD, −matrix [8] | gene expression of apoptosis biomarkers (Bax and Fos) [9] | gene expression of apoptosis biomarkers (Bax and Fos) [10] | cytotoxicity as determined by quantification of apoptosis [10] | ALP activity fold-changes +/− SD, +matrix [8] | other results
– | CC(C)[C@H](N)C(=O)Oc1ccc(C=CC(=O)C=C(O)C=Cc2ccc(OC(=O)[C@@H](N)C(C)C)cc2)cc1 [Compound 3, (2S,2′S)—O,O′-(3-hydroxy-5-oxohepta-1,3,6-triene-1,7-diyl)bis(4,1-phenylene) bis(2-amino-3-methylbutanoate)] | increased expression | modest increase | no decrease in cell viability | exceeded the effect of compound alone or matrix alone | 1.8 ± 0.1 | 2.3 ± 0.2 | 1.7 ± 0.1 | 1.5 ± 0.1 | did not show a decrease in cell viability | marked calcium deposition | modestly inhibitory to adipogenesis | no increase in adipogenesis | synergistic increase in ALP activity | 1.7 ± 0.2 fold | unable to detect gene expression of typical apoptosis biomarkers | unable to detect gene expression of typical apoptosis biomarkers | no cytotoxicity | – | pEC50 [4]: 6.85; increase in cell proliferation (Alamar Blue Assay) ([5]; 50 nM, 3 days): 4 fold
6.89 | CC(C)[C@H](N)C(=O)Oc1ccc(/C=C/C(O)=C2\CCC/C(=C\c3ccc(OC(=O)[C@@H](N)C(C)C)cc3)C2=O)cc1 [Compound 4, 4-((1E,3Z)-3-(3-((E)-4-((L-valyl)oxy)benzylidene)-2-oxocyclohexylidene)-3-hydroxyprop-1-en-1-yl)phenyl L-valinate] | increased expression | – | no decrease in cell viability | exceeded the effect of compound alone or matrix alone | 2.7 ± 0.2 | 4.0 ± 0.4 | 1.8 ± 0.2 | 1.5 ± 0.1 | did not show a decrease in cell viability | marked calcium deposition | modestly inhibitory to adipogenesis | no increase in adipogenesis | synergistic increase in ALP activity | 1.7 ± 0.2 fold | unable to detect gene expression of typical apoptosis biomarkers | unable to detect gene expression of typical apoptosis biomarkers | no cytotoxicity | 2.6 ± 0.3 fold | –
7.59 | CC(=O)N1c2ccc(C)cc2[C@H](Nc2ccc(C)cc2)C[C@@H]1C (relative stereo) [Compound 1, cis-1-acetyl-2,6-dimethyl-N-(p-methylphenyl)-1,2,3,4-tetrahydroquinolin-4-amine] | 5.0 fold | modest increase | no decrease in cell viability | exceeded the effect of compound alone or matrix alone | 1.5 ± 0.1 | 3.6 ± 0.4 | 1.5 ± 0.1 | 1.2 ± 0.1 | did not show a decrease in cell viability | 1.6 fold | – | – | synergistic increase in ALP activity | – | unable to detect gene expression of typical apoptosis biomarkers | unable to detect gene expression of typical apoptosis biomarkers | no cytotoxicity | 19.4 ± 2.0 fold | ID3 mRNA expression, absence of matrix [1]: 1.8 fold; calcium deposition, presence of matrix [6]: 2.5 fold
